This test relates to ANKA strain of P. berghei. The test can be described thus: Single dose STI in vivo screen in infected mice. The arrangement: species or system Plasmodium berghei. Conditions: for Survival (days) 3 mg/kg SSV po / Activity (%) 3 mg/kg SSV po: single 3 mg/kg po in SSV; for Activity (%) 3 mg/kg SSV po / Activity (%) 10 mg/kg SSV po / Activity (%) 10 mg/kg po / Activity (%) 10 mg/kg sc: percent reduction in parasitemia on day 3; for Survival (days) 10 mg/kg SSV po: single 10 mg/kg po in SSV; for Survival (days) 10 mg/kg SSV po / Survival (days) 10 mg/kg po / Survival (days) 10 mg/kg sc: untreated 6-7 days; for Activity (%) 10 mg/kg SSV po: single 10 mg/kg po in standard suspending vehicle (SSV) on day 1 post-infection; for Survival (days) 10 mg/kg po: single 10 mg/kg po in 3% ethanol and 7% Tween 80; for Activity (%) 10 mg/kg po: single 10 mg/kg po in 3% ethanol and 7% Tween 80 on day 1 post-infection; for Survival (days) 10 mg/kg sc: single 10 mg/kg sc in 3% ethanol and 7% Tween 80; for Activity (%) 10 mg/kg sc: single 10 mg/kg sc in 3% ethanol and 7% Tween 80 on day 1 post-infection. The procedure:
In the single dose STI in vivo screen, Moro SPF or NMRI mice infected with the ANKA strain of P. berghei (groups of three mice) were treated on day one post-infection with trioxolanes dissolved or suspended in 3% ethanol and 7% Tween 80. […] SSV consists of 0.5% w/v CMC, 0.5% v/v benzyl alcohol, 0.4% v/v Tween 80, and 0.9% w/v sodium chloride in water. Antimalarial activity was measured by percent reduction in parasitemia on day three post-infection and survival times compared to an untreated control group. Survival to day 30 post-infection is considered to be a cure. […] Other factors influencing antimalarial activity include the stability of carbon radicals formed by β-scission subsequent to the initial electron transfer to the peroxide bond and the influence of steric effects remote from the peroxide bond on the interactions between carbon radicals and potential drug targets.
Moro NMRI male mice (Fu Albino specific pathogen free) weighing 18±2 g were infected intravenously (i.v.) with 2×10^7 P. berghei ANKA strain-infected erythrocytes from donor mice on day 0 of the experiment. From donor mice with circa 30% parasitemia, heparinized blood was taken and diluted in physiological saline to 10^8 parasitized erythrocytes per ml. An aliquot (0.2 ml) of this suspension was injected i.v. into experimental and control groups of mice. […] Throughout the experiments, mice were kept in groups of three or five animals in Makrolon type II cages in an air-conditioned animal room at 22 to 23° C.
They were administered per os (p.o.) in a total volume of 0.01 ml per gram of mouse. The activity of the compound was determined by a variety of methods outlined in subsequent sections. Survival time was also recorded, and survival to day 30 post-infection was considered to be a cure.

Structures are written as SMILES.

`O=C(C[C@H]1CC[C@]2(CC1)OO[C@]1(O2)C2CC3CC(C2)CC1C3)N1CCS(=O)(=O)CC1` [OZ342]: the “Survival (days) 3 mg/kg SSV po” value was determined as 6.4 days, the “Activity (%) 3 mg/kg SSV po” value was determined as 0%, the “Survival (days) 10 mg/kg SSV po” value was found to be 6.8 days and the “Activity (%) 10 mg/kg SSV po” value is on record as 27%.

Regarding `O=CN1CCN(C[C@H]2CC[C@]3(CC2)OO[C@]2(O3)C3CC4CC(C3)CC2C4)CC1` [OZ303], the “Survival (days) 3 mg/kg SSV po” value came out at 7.6 days, the “Activity (%) 3 mg/kg SSV po” value is 69% and the “Survival (days) 10 mg/kg SSV po” value is recorded as 8.6 days.

Consider `O=C(N1CCOCC1)N1CCC2(CC1)OOC1(O2)C2CC3CC(C2)CC1C3` (stereo not drawn) [OZ188, Adamantane-2-spiro-3′-8′-(4′-morpholinylcarbonyl)-1′,2′,4′-trioxa-8′-azaspiro[4.5]decane], for which the “Survival (days) 10 mg/kg po” value worked out at 8.7 days, the “Activity (%) 10 mg/kg po” value worked out at 93%, the “Survival (days) 10 mg/kg SSV po” value is recorded as 10.0 days and the “Activity (%) 10 mg/kg SSV po” value is on record as 98%. Moreover, the “Survival (days) 10 mg/kg sc” value is 9.0 days and the “Activity (%) 10 mg/kg sc” value is recorded as 99.87%.

For `O=C(c1ccncc1)N1CCC2(CC1)OOC1(O2)C2CC3CC(C2)CC1C3` (stereo not drawn) [OZ100, Adamantane-2-spiro-3′-8′-(4′-pyridinylcarbonyl)-1′,2′,4′-trioxa-8′-azaspiro[4.5]decane], the “Survival (days) 10 mg/kg po” value is given as 6.7 days, the “Activity (%) 10 mg/kg po” value is 61%, the “Survival (days) 10 mg/kg SSV po” value is on record as 6.3 days and the “Activity (%) 10 mg/kg SSV po” value worked out at 36%. Also, the “Survival (days) 10 mg/kg sc” value is on record as 7.0 days and the “Activity (%) 10 mg/kg sc” value amounted to 80%.

On to `CCOC(=O)CCNCC1CCC2(CC1)OOC1(O2)C2CC3CC(C2)CC1C3.Cc1ccc(S(=O)(=O)O)cc1` (stereo not drawn) [OZ318], for which the “Survival (days) 3 mg/kg SSV po” value is reported as 7.6 days, the “Activity (%) 3 mg/kg SSV po” value was found to be 29%, the “Survival (days) 10 mg/kg SSV po” value is 12.4 days and the “Activity (%) 10 mg/kg SSV po” value is 88%.

As to `c1cnc(NC[C@H]2CC[C@]3(CC2)OO[C@]2(O3)C3CC4CC(C3)CC2C4)nc1` [OZ326], the “Survival (days) 3 mg/kg SSV po” value is 6.0 days, the “Activity (%) 3 mg/kg SSV po” value was determined as 7%, the “Survival (days) 10 mg/kg SSV po” value is listed as 7.4 days and the “Activity (%) 10 mg/kg SSV po” value is listed as 80%.

For the compound `O=C(NC[C@H]1CC[C@]2(CC1)OO[C@]1(O2)C2CC3CC(C2)CC1C3)c1ccccn1` [OZ304], the “Survival (days) 3 mg/kg SSV po” value is given as 8.8 days, the “Activity (%) 3 mg/kg SSV po” value was 61%, the “Survival (days) 10 mg/kg SSV po” value turned out to be 8.2 days and the “Activity (%) 10 mg/kg SSV po” value was 98%.

On to `NCCNC(=O)C[C@H]1CC[C@]2(CC1)OO[C@]1(O2)C2CC3CC(C2)CC1C3` [OZ305], for which the “Survival (days) 3 mg/kg SSV po” value is recorded as 9.6 days, the “Activity (%) 3 mg/kg SSV po” value came out at 96% and the “Survival (days) 10 mg/kg SSV po” value is 9.2 days.

`NC(=O)c1cn(C[C@H]2CC[C@]3(CC2)OO[C@]2(O3)C3CC4CC(C3)CC2C4)cn1` [OZ320]: the “Activity (%) 3 mg/kg SSV po” value was 92%.

Take `C[C@H](N)C(=O)NC[C@H]1CC[C@]2(CC1)OO[C@]1(O2)C2CC3CC(C2)CC1C3` [OZ335]: the “Survival (days) 3 mg/kg SSV po” value is reported as 10.0 days, the “Activity (%) 3 mg/kg SSV po” value is listed as 97% and the “Survival (days) 10 mg/kg SSV po” value is recorded as 9.2 days.

For the compound `c1cnc(OC[C@H]2CC[C@]3(CC2)OO[C@]2(O3)C3CC4CC(C3)CC2C4)nc1` [OZ325], the “Survival (days) 3 mg/kg SSV po” value is 6.2 days, the “Activity (%) 3 mg/kg SSV po” value turned out to be 30% and the “Survival (days) 10 mg/kg SSV po” value was 8.8 days.

For the compound `O=C(C[C@H]1CC[C@]2(CC1)OO[C@]1(O2)C2CC3CC(C2)CC1C3)N1CCN(c2ncccn2)CC1` [OZ314], the “Survival (days) 3 mg/kg SSV po” value was 6.6/6.6 days, the “Activity (%) 3 mg/kg SSV po” value amounted to 11%, the “Survival (days) 10 mg/kg SSV po” value was 6.6/6.6 days and the “Activity (%) 10 mg/kg SSV po” value turned out to be 13%.

The values are drawn from patent US6825230B2, “Spiro and dispiro 1,2,4-trixolane antimalarials” (Medicines for Malaria Venture MMV, priority 2002, dated 2004).
